In patent US20260250250A1, “3-(SULPHONYL OR SULFONIMIDOYL)PROP-2-EN-1-YL]-2-OXO-1,2-DIHYDROPYRIDINE-3-CARBOXAMIDE DERIVATIVES” (Flinder Therapeutics B.V., priority 2022, published 2026):
Read-outs that look alike come from different tables or passages of the source.

Assays:
[1] = test system: bladder carcinoma RT4 cell line; experiment: TNF-α-induced cytotoxicity assay (CellTiter-Glo viability); assay type: cell-based
Method in brief: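 RT4 bladder carcinoma cells, 1000 per well, stimulated with 1.25 ng/mL TNFα together with compound for 72 h at 37° C., 5% CO2. Viability read by CellTiter-Glo luminescence, proportional to cellular ATP, as a measure of HOIP-dependent cytotoxicity.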

[2] = target: T1, human E3 ubiquitin-protein ligase RNF31 (HOIP) (Homo sapiens, UniProt Q96EP0); experiment: Cell-free HTRF-based HOIP inhibition assay; assay type: biochemical
T1 sequence (Q96EP0 695-1072 limits assumed): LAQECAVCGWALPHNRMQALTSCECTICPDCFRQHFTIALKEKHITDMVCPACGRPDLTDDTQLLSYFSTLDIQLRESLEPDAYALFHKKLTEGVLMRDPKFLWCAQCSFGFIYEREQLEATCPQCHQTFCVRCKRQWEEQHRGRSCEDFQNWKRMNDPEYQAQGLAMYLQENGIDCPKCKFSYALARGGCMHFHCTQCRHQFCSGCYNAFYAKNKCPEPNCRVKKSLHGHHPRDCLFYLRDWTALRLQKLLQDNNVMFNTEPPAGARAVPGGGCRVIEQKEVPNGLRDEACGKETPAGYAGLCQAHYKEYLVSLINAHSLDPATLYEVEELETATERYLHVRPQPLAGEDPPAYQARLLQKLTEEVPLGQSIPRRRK
Method in brief: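 HTRF read (ex 337 nm; em 665 and 620 nm) after a 2.5 h, 25° C. ubiquitination step started by adding E2 plus substrates. Before that, E. coli-expressed human HOIP fragment and E1 were incubated 1 h at 25° C. with compound at 100-0.005 μM, 1% DMSO final.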

[3] = test system: NF-κB signaling pathway; experiment: Cell-based dual luciferase NF-κB reporter assay (HEK293 cells, TNF stimulated)
Experimental: Dual-luciferase reporter assay was designed to find inhibitors of HOIP affecting NF-κB signaling pathway. The assay was performed in HEK293 cells which were transfected with plasmids coding for Firefly and NanoLuc luciferases. The NanoLuc luciferase plasmid contains NF-κB response element which determines its expression.
The assay was run following standard dual-luciferase protocols. The assay consists of a few steps: • compounds were dispensed at a concentration range: 100-0.005 μM with a final DMSO concentration of 1% of final volume (25 μL); • cells were stimulated after 30 min with 2.5 ng/mL TNF; and • after 6 h Firefly and NanoLuc luciferase activities are determined according to the procedure described by the manufacturer of Nano-Glo Dual-Luciferase Reporter Assay System.

## COc1ccc(S(=O)(=O)/C=C/CNC(=O)c2cc3c([nH]c2=O)CCCC3)cc1 [Example 40, N-[(2E)-3-(4-methoxybenzenesulfonyl)prop-2-en-1-yl]-2-oxo-1,2,5,6,7,8-hexahydroquinoline-3-carboxamide]
[1]; Homo sapiens, RT-4, 72 h
  IC50: ≤ 1000 nM
[2]
  IC50: ≤ 1000 nM
[3]; Homo sapiens, HEK293
  IC50: ≤ 1000 nM

## O=C(NC/C=C/S(=O)(=O)c1ccccc1)c1cc2c([nH]c1=O)CCCC2 [Example 7, N-[(2E)-3-(benzenesulfonyl)prop-2-en-1-yl]-2-oxo-1,2,5,6,7,8-hexahydroquinoline-3-carboxamide]
[1]; Homo sapiens, RT-4, 72 h
  IC50: ≤ 1000 nM
[2]
  IC50: ≤ 1000 nM
[3]; Homo sapiens, HEK293
  IC50: ≤ 1000 nM

## O=C(NC/C=C/S(=O)(=O)c1ccccc1)c1cc2c([nH]c1=O)CCN(C(=O)OCCc1ccco1)C2 [Example 89, 2-(furan-2-yl)ethyl 3-{[(2E)-3-(benzenesulfonyl)prop-2-en-1-yl]carbamoyl}-2-oxo-1,2,5,6,7,8-hexahydro-1,6-naphthyridine-6-carboxylate]
[1]; Homo sapiens, RT-4, 72 h
  IC50: ≤ 1000 nM
[2]
  IC50: ≤ 1000 nM
[3]; Homo sapiens, HEK293
  IC50: ≤ 10000 nM

## O=C(NC/C=C/S(=O)(=O)c1ccccc1)c1cc2c([nH]c1=O)CCN(C(=O)OC1CCC3(CC1)COC3)C2 [Example 79, 2-Oxaspiro[3.5]nonan-7-vi 3-{[(2E)-3-(benzenesulfonyl)prop-2-en-1-yl]carbamoyl}-2-oxo-1,2,5,6,7,8-hexahydro-1,6-naphthyridine-6-carboxylate]
[1]; Homo sapiens, RT-4, 72 h
  IC50: ≤ 10000 nM
[2]
  IC50: ≤ 100 nM
[3]; Homo sapiens, HEK293
  IC50: ≤ 10000 nM

## O=C(NC/C=C/S(=O)(=O)c1ccccc1)c1cc2c([nH]c1=O)CCN(Cc1cccnn1)C2 [Example 123, N-[(2E)-3-(benzenesulfonyl)prop-2-en-1-yl]-2-oxo-6-[(pyridazin-3-yl)methyl]-1,2,5,6,7,8-hexahydro-1,6-naphthyridine-3-carboxamide]
[1]; Homo sapiens, RT-4, 72 h
  IC50: ≤ 100000 nM
[2]
  IC50: ≤ 1000 nM
[3]; Homo sapiens, HEK293
  IC50: ≤ 100000 nM

## O=C(NC/C=C/S(=O)(=O)c1ccccc1)c1cc2c([nH]c1=O)CCN(Cc1ccccc1)C2 [Example 8, N-[(2E)-3-(benzenesulfonyl)prop-2-en-1-yl]-6-benzyl-2-oxo-1,2,5,6,7,8-hexahydro-1,6-naphthyridine-3-carboxamide]
[1]; Homo sapiens, RT-4, 72 h
  IC50: ≤ 1000 nM
[2]
  IC50: ≤ 1000 nM
[3]; Homo sapiens, HEK293
  IC50: ≤ 1000 nM

## N=S(=O)(/C=C/CNC(=O)c1cc2c([nH]c1=O)CCN(C(=O)OCC(F)F)C2)c1ccccc1 (stereo not drawn) [Example 182, 2,2-difluoroethyl 3-{[(2E)-3-[imino(oxo)phenyl-λ^6-sulfanyl]prop-2-en-1-yl]carbamoyl}-2-oxo-1,2,5,6,7,8-hexahydro-1,6-naphthyridine-6-carboxylate]
[1]; Homo sapiens, RT-4, 72 h
  IC50: ≤ 10000 nM
[2]
  IC50: ≤ 1000 nM
[3]; Homo sapiens, HEK293
  IC50: ≤ 100000 nM

## COc1ccc(S(=N)(=O)/C=C/CNC(=O)c2cc3c([nH]c2=O)CCN(C(=O)OC(C)(C)C)C3)cc1F (stereo not drawn) [Example 152, tert-butyl 3-{[(2E)-3-[(3-fluoro-4-methoxyphenyl)(imino)oxo-λ^6-sulfanyl]prop-2-en-1-yl]carbamoyl}-2-oxo-1,2,5,6,7,8-hexahydro-1,6-naphthyridine-6-carboxylate]
[1]; Homo sapiens, RT-4, 72 h
  IC50: ≤ 10000 nM
[2]
  IC50: ≤ 100 nM
[3]; Homo sapiens, HEK293
  IC50: ≤ 10000 nM

## O=C(NC/C=C/S(=O)(=O)c1ccccc1)c1cc2c([nH]c1=O)CCN(Cc1cccnc1)C2 [Example 104, N-[(2E)-3-(benzenesulfonyl)prop-2-en-1-yl]-2-oxo-6-[(pyridin-3-yl)methyl]-1,2,5,6,7,8-hexahydro-1,6-naphthyridine-3-carboxamide]
[1]; Homo sapiens, RT-4, 72 h
  IC50: ≤ 10000 nM
[2]
  IC50: ≤ 1000 nM
[3]; Homo sapiens, HEK293
  IC50: ≤ 10000 nM

## COc1c(C)cc(S(=N)(=O)/C=C/CNC(=O)c2cc3c([nH]c2=O)CCCC3)cc1C (stereo not drawn) [Example 63, N-[(2E)-3-[Imino(4-methoxy-3,5-dimethylphenyl)oxo-λ^6-sulfanyl]prop-2-en-1-yl]-2-oxo-1,2,5,6,7,8-hexahydroquinoline-3-carboxamide]
[1]; Homo sapiens, RT-4, 72 h
  IC50: ≤ 1000 nM
[2]
  IC50: ≤ 1000 nM
[3]; Homo sapiens, HEK293
  IC50: ≤ 1000 nM

## CC(C)C1CCc2[nH]c(=O)c(C(=O)NC/C=C/S(=O)(=O)c3ccccc3)cc2C1 (stereo not drawn) [Example 46, N-[(2E)-3-(benzenesulfonyl)prop-2-en-1-yl]-2-oxo-6-(propan-2-yl)-1,2,5,6,7,8-hexahydroquinoline-3-carboxamide]
[1]; Homo sapiens, RT-4, 72 h
  IC50: ≤ 1000 nM
[2]
  IC50: ≤ 1000 nM
[3]; Homo sapiens, HEK293
  IC50: ≤ 1000 nM

## N=S(=O)(/C=C/CNC(=O)c1cc2c([nH]c1=O)CCCC2)c1ccc(F)cc1 (stereo not drawn) [Example 6, N-[(2E)-3-[(4-fluorophenyl)(imino)oxo-λ^6-sulfanyl]prop-2-en-1-yl]-2-oxo-1,2,5,6,7,8-hexahydroquinoline-3-carboxamide]
[1]; Homo sapiens, RT-4, 72 h
  IC50: ≤ 1000 nM
[2]
  IC50: ≤ 1000 nM
[3]; Homo sapiens, HEK293
  IC50: ≤ 10000 nM

## N=S(=O)(/C=C/CNC(=O)c1cc2c([nH]c1=O)CCC(F)(F)C2)c1ccc(F)cc1 (stereo not drawn) [Example 59, 6,6-difluoro-N-[(2E)-3-[(4-fluorophenyl)(imino)oxo-λ^6-sulfanyl]prop-2-en-1-yl]-2-oxo-1,2,5,6,7,8-hexahydroquinoline-3-carboxamide]
[1]; Homo sapiens, RT-4, 72 h
  IC50: ≤ 1000 nM
[2]
  IC50: ≤ 1000 nM
[3]; Homo sapiens, HEK293
  IC50: ≤ 10000 nM

## CC(C)(C)OC(=O)N1CCc2[nH]c(=O)c(C(=O)NC/C=C/S(=O)(=O)c3ccc(F)cc3)cc2C1 [Example 25, tert-butyl 3-{[(2E)-3-(4-fluorobenzenesulfonyl)prop-2-en-1-yl]carbamoyl}-2-oxo-1,2,5,6,7,8-hexahydro-1,6-naphthyridine-6-carboxylate]
[1]; Homo sapiens, RT-4, 72 h
  IC50: ≤ 10000 nM
[2]
  IC50: ≤ 100 nM
[3]; Homo sapiens, HEK293
  IC50: ≤ 1000 nM

## O=C(NC/C=C/S(=O)(=O)c1ccc(Cl)cc1Cl)c1cc(-c2ccccc2)c[nH]c1=O [Example 126, N-[(2E)-3-(2,4-dichlorobenzenesulfonyl)prop-2-en-1-yl]-2-oxo-5-phenyl-1,2-dihydropyridine-3-carboxamide]
[1]; Homo sapiens, RT-4, 72 h
  IC50: ≤ 10000 nM
[2]
  IC50: ≤ 100 nM
[3]; Homo sapiens, HEK293
  IC50: ≤ 1000 nM

## O=C(NC/C=C/S(=O)(=O)c1ccc(Cl)cc1)c1cc2c([nH]c1=O)CCN(C(=O)OCC(F)F)C2 [Example 96, 2,2-difluoroethyl 3-{[(2E)-3-(4-chlorobenzenesulfonyl)prop-2-en-1-yl]carbamoyl}-2-oxo-1,2,5,6,7,8-hexahydro-1,6-naphthyridine-6-carboxylate]
[1]; Homo sapiens, RT-4, 72 h
  IC50: ≤ 10000 nM
[2]
  IC50: ≤ 1000 nM
[3]; Homo sapiens, HEK293
  IC50: ≤ 1000 nM

## O=C(NCC=CS(=O)(=O)c1ccccc1)c1cc2c([nH]c1=O)CCN(C(=O)OC1CCOC1)C2 [Example 82, (3R)-oxolan-3-vi 3-{[(2E)-3-(benzenesulfonyl)prop-2-en-1-yl]carbamoyl}-2-oxo-1,2,5,6,7,8-hexahydro-1,6-naphthyridine-6-carboxylate]
[1]; RT4, 1.25 ng/mL TNFα, 72 h, bin printed as 1.0 μM < IC50 ≤ 10 μM (lower bound in the cell to the left)
  IC50: ≤ 10000 nM
[2]; bin printed as 100 nM < IC50 ≤ 1.0 μM (lower bound in the cell to the left)
  IC50: ≤ 1000 nM
[3]; HEK293, 2.5 ng/mL TNF, bin printed as 1.0 μM < IC50 ≤ 10 μM (lower bound in the cell to the left)
  IC50: ≤ 10000 nM

## O=C(NC/C=C/S(=O)(=O)c1ccccc1F)c1cc2c([nH]c1=O)CCCC2 [Example 24, N-[(2E)-3-(2-fluorobenzenesulfonyl)prop-2-en-1-yl]-2-oxo-1,2,5,6,7,8-hexahydroquinoline-3-carboxamide]
[1]; Homo sapiens, RT-4, 72 h
  IC50: ≤ 1000 nM
[2]
  IC50: ≤ 100 nM
[3]; Homo sapiens, HEK293
  IC50: ≤ 1000 nM

## O=C(NC/C=C/S(=O)(=O)c1ccccc1)c1cc2c([nH]c1=O)CCN(C(=O)c1cnn(-c3ccccc3)n1)C2 [Example 112, N-[(2E)-3-(benzenesulfonyl)prop-2-en-1-yl]-2-oxo-6-(2-phenyl-2H-1,2,3-triazole-4-carbonyl)-1,2,5,6,7,8-hexahydro-1,6-naphthyridine-3-carboxamide]
[1]; Homo sapiens, RT-4, 72 h
  IC50: ≤ 10000 nM
[2]
  IC50: ≤ 1000 nM
[3]; Homo sapiens, HEK293
  IC50: ≤ 10000 nM
